Test: gradient 5% acetonitrile 3 min, to 50% in 2 min, to 85% in 15 min, held 3 min, 100 µL/min
Conditions: column: Zorbax Extend-C18 2.1 x 50 mm; eluents: water / acetonitrile, 0.1% formic acid
How it was run: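 A Zorbax Extend-C18 column (2.1 × 50 mm, 1.8 μm) run at 100 μL/min with water and acetonitrile, both containing 0.1% formic acid, separated mixtures of ~100 pure standards. The HPLC was coupled to a quadrupole time-of-flight mass spectrometer operated in positive and negative ionization mode, with dead and dwell volumes of 40 μL and 900 μL. Each retention time was taken from a computationally picked adduct peak that was then manually inspected.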

| SMILES | RP-LC retention time |
| --- | --- |
| CCOc1ccc(/C=C/C(=O)Nc2nc(-c3ccc4c(c3)N(C)C(=O)CO4)cs2)cc1OC | 985 s |
| CN(C)CCNC(=O)c1nc2ccccn2c1-c1ccc(Cl)cc1 | 626 s |
| O=C(Nc1ccc(F)c(Cl)c1)c1cn2c(n1)CSCC2 | 807 s |
| COc1ccc(OCC(=O)N2CCCCC2CCN2CCOCC2)cc1 (configuration not stated) | 601 s |
| Cc1cc(C)n(Cc2ccc(C(=O)N3C[C@H]4C[C@H](C3)[C@H]3CCCC(=O)N3C4)o2)n1 | 630 s |
| CCc1cccc(C)c1Nc1c(-c2ccc(O)c(OC)c2)nc2nc(C)cc(C)n12 | 710 s |
| Cc1nc(C)c(C(=O)N2CCCC2c2nc(-c3ccc(F)cc3F)no2)s1 (configuration not stated) | 837 s |
| COc1ccc(C[C@H](C)NC[C@@H](O)c2ccc(O)c(NC=O)c2)cc1 | 663 s |
| COc1cc(NC(=O)N2CCC(CC(=O)N3CCN(c4ccccn4)CC3)CC2)cc(OC)c1OC | 576 s |
| Cc1cc(C)cc(C(=O)N2CCC(n3c(-c4ccoc4)nc4cccnc43)C2)c1 (configuration not stated) | 804 s |
| CCn1c(CCNC(=O)c2ccc(C)cc2C)nc2cccnc21 | 694 s |
| COc1ccc(-c2nnc(SCc3ccc(C#N)cc3)o2)cc1 | 948 s |
| Cc1ccc(-c2nc3ncccn3c2Nc2cc(C)cc(C)c2)cc1 | 866 s |
| CCC1CN2C=NC(N3CCN(C(=O)Nc4ccc(SC)cc4)CC3)=CC2=N1 (configuration not stated) | 655 s |
| COc1cc(-c2nc3ncccn3c2NCc2ccc(C)cc2)ccc1OC(C)C | 811 s |
| Cc1noc(COC2CCCN(C(=O)NCCc3ccccc3)C2)n1 (configuration not stated) | 756 s |
| Cc1cc(-c2ccc3c(c2)CCN3C(=O)Cc2ccc(F)cc2)on1 | 1000 s |
| CCOc1ccc(-c2nc(NC(=O)c3ccccc3[N+](=O)[O-])sc2C)cc1 | 1050 s |
| Cc1cccc(NC(=O)NC2CCN(c3ccc(C)c(C)c3)C2=O)c1 (configuration not stated) | 923 s |

| SMILES | RP-LC retention time |
| --- | --- |
| CC1=C(c2ccc(C)c(C)c2)S(=O)(=O)N=C1N1CCCN(C(=O)CC2CCCC2)CC1 | 967 s |
| C#Cc1cccc(Nc2ncnc3cc4c(cc23)OCCOCCOCCO4)c1 | 674 s |
| Cc1nocc1C(=O)N1CCCn2ccnc2C1C1CCCC1 (configuration not stated) | 589 s |
| CC(=O)Nc1ccc(-c2noc(C3CCN(C(=O)Cc4c[nH]c5ccccc45)CC3)n2)cc1 | 761 s |
| O=C(Nc1ccc2scnc2c1)c1ccc(Cl)cc1Cl | 801 s |
| CCC(C)NC(=O)c1cc2n(n1)CCCN(Cc1cccc(C)c1)C2=O (configuration not stated) | 851 s |
| Cc1cccc(N2CCN(S(=O)(=O)c3ccc(-c4nnc(C5CCC5)o4)o3)CC2)c1 | 1140 s |
| CCN1CCN(C(=O)C2CCc3sc(C(=O)N(CC)CC)cc3C2)CC1 (configuration not stated) | 683 s |
| Nc1nc(-c2nn(Cc3ccccc3F)c3ncccc23)ncc1C1CC1 | 720 s |
| O=C(CN1C(=O)CC(c2ccccc2)=Nc2cccnc21)Nc1ccc(F)cc1F | 949 s |
| COc1cccc(C2Cn3nnc(-c4nc(-c5ccc(C(F)(F)F)cc5)no4)c3CO2)c1 (configuration not stated) | 1270 s |
| CCn1c(CCNC(=O)c2ccccc2)nc2cccnc21 | 598 s |
| CCn1cc(C(=O)Nc2ccc(C)cc2)c2cccnc21 | 859 s |
| CC(=O)N(Cc1nn(C)c2c1CN(S(=O)(=O)c1ccc(Cl)cc1)CC2)c1ccccc1 | 844 s |
| CCN1CCC(N(Cc2ccc3c(c2)OCO3)C(=O)Nc2cc(C)ccc2OC)CC1 | 706 s |
| CCCCNC(=O)c1cn(CCC)nc1S(=O)(=O)N1CCN(c2ccccc2OCC)CC1 | 1140 s |
| COCCCNC(=O)CN1C(=O)CCn2nc(-c3cn(C)c4ccccc34)cc21 | 685 s |
| Cc1ccc(-c2nccn3cc(C(=O)N4CCN(C5CCCCC5)CC4)nc23)cc1 | 682 s |
